Measurements published in patent US10017823B2, “Analytical method for increasing susceptibility of molecular targeted therapy in hepatocellular carcinoma” (CBS BIOSCIENCE, CO., LTD, priority 2013, dated 2018).

Tests used:
hepatocellular carcinoma = experiment: Susceptibility assay in sorafenib-administered patients (tumor response according to RECIST); format: in vivo
Text: The term “patient having susceptibility to sorafenib treatment” refers to a hepatocellular carcinoma patient showing response according to the sorafenib administration (i.e., tumor response). […] N Engl J Med 359: 378-390.
In the samples derived from 23 sorafenib-administered patients, we analyzed the relationship between the 7 marker gene expression patterns and the sorafenib efficacies. From the hierarchical clustering analysis results of FIG. 5, clustering without primary classification according to BCLC stages was performed according to expression ratio (tumor/non-tumor) of the target molecules; and then the 23 sorafenib-administered patients (i to xxiii) were correspondingly arranged thereto (FIG. 6). […] N Engl J Med 359: 378-390.

advanced HCC = conditions: HCC patients, stated as very low; cited from earlier work

## CNC(=O)c1cc(Oc2ccc(NC(=O)Nc3ccc(Cl)c(C(F)(F)F)c3)cc2)ccn1 [sorafenib]
Hepatocellular carcinoma; patients viii, x, xi of the 23 sorafenib-administered HCC patients
  tumor response according to RECIST: partial response
Hepatocellular carcinoma; remaining 20 of the 23 sorafenib-administered HCC patients
  susceptibility to the sorafenib treatment (RECIST tumor response): not susceptible
Advanced HCC
  response rate of sorafenib: about 3%
